The NIST ThermoML archive (doi:10.1016/j.fluid.2013.06.048)
“And” between values parts separate entries of the source, which are not always exact repeats. Equal values may be shown once. ± gives the expanded uncertainty stated by the source.

Settings: Liquid; pulse-heating method

SMILES	Critical pressure	Critical temperature
OCCCO [propan-1,3-diol]	6380 ± 160 kPa and 6300 ± 200 kPa and 6550 ± 160 kPa	721 ± 24 K and 722 ± 24 K and 718.2 ± 24 K
OCCCCCCO [1,6-hexanediol]	3400 ± 160 kPa and 4080 ± 160 kPa	–
OCCCCO [1,4-butanediol]	5400 ± 160 kPa and 6220 ± 160 kPa and 5520 ± 160 kPa	728 ± 24 K and 727 ± 24 K and 723.8 ± 24 K
OCCCCCCCCO [1,8-octanediol]	2700 ± 160 kPa	752 ± 24 K
OCCCCCO [1,5-pentanediol]	4000 ± 160 kPa	731 ± 24 K

The remaining lines, values ahead:

Critical pressure	Critical temperature	SMILES
2200 ± 160 kPa	770 ± 24 K	OCCCCCCCCCCO [1,10-decanediol]
1930 ± 160 kPa	798 ± 24 K	OCCCCCCCCCCCCO [1,12-dihydroxydodecane]
2400 ± 160 kPa	760 ± 24 K	OCCCCCCCCCO [1,9-nonanediol]
